Series [1] concerns the target human mGluR5a receptor (Homo sapiens, UniProt P41594). The experiment in a line: Cell-based functional Ca2+ mobilization assay (FDSS), potentiation of glutamate EC20 response in H10H cell line. The following applies: for pEC50 / EC50: HEK cells transfected with human mGluR5 (H10H), presence of glutamate EC20; for pEC50: concentration in mol/L; for EC50: read-out: EC50; for Emax: percent of maximal glutamate response, human mGluR5 HEK cells. As to the method: Human embryonic kidney (HEK) cells transfected with rat mGluR5 were plated in clear bottom assay plates for assay in a Functional Drug Screening System (FDSS). In the alternative assay, HEK cells transfected with human mGluR5 (H10H cell line) were plated for assay in the FDSS. […] The cells were loaded with a Ca^2+-sensitive fluorescent dye (e.g., Fluo-4), and the plates were washed and placed in the FDSS instrument. After establishment of a fluorescence baseline for twelve seconds, the compounds of the present invention were added to the cells, and the response in cells was measured. Alternatively, in various further aspects, after establishment of a fluorescence baseline for about three seconds, the compounds of the present invention were added to the cells, and the response in cells was measured. Five minutes later, an mGluR5 agonist (e.g., glutamate, 3,5-dihydroxyphenylglycine, or quisqualate) was added to the cells, and the response of the cells was measured.
The above described assay operated in two modes. In the first mode, a range of concentrations of the present compounds were added to cells, followed by a single fixed concentration of agonist. If a compound acted as a potentiator, an EC50 value for potentiation and a maximum extent of potentiation by the compound at this concentration of agonist was determined by non-linear curve fitting. In the second mode, several fixed concentrations of the present compounds were added to various wells on a plate, followed by a range of concentrations of agonist for each concentration of present compound; the EC50 values for the agonist at each concentration of compound were determined by non-linear curve fitting. A decrease in the EC50 value of the agonist with increasing concentrations of the present compounds (a leftward shift of the agonist concentration-response curve) is an indication of the degree of mGluR5 potentiation at a given concentration of the present compound. An increase in the EC50 value of the agonist with increasing concentrations of the present compounds (a rightward shift of the agonist concentration-response curve) is an indication of the degree of mGluR5 antagonism at a given concentration of the present compound. The second mode also indicates whether the present compounds also affect the maximum response to mGluR5 to agonists.
The mGluR5 activity was determined using the metabotropic glutamate receptor activity assays in human embryonic kidney cells as described herein, wherein the human embryonic kidney cells were transfected with human mGluR5. The compounds in Table 1 were synthesized with methods identical or analogous to those shown herein. The requisite starting materials were commercially available, described in the literature, or readily synthesized by one skilled in the art of organic synthesis.
Human mGluR5a cDNA in pCMV6-XL6 mammalian expression plasmid was purchased from OriGene Technologies, Inc. (catalogue number SC326357) and subcloned into pcDNA3.1(−). Human embryonic kidney (HEK)293A cells were then transfected with human mGluR5a pcDNA3.1(−) using LipofectAmine2000 (Invitrogen) and monoclones were selected and tested for functional response using a Ca^2+ mobilization assay. Monoclones were named for the species (“H” for human) plus the location on the plate (e.g. “10H”).
HEK cells transfected with the human mGluR5a receptor (H10H cell line) were plated at 15,000 cells/well in clear-bottomed poly-D-lysine-coated assay plates (BD Falcon) in glutamate-glutamine-free growth medium and incubated overnight at 37° C. and 5% CO2. The following day, the growth medium was removed and the cells were washed with assay buffer containing 1× Hank's balanced salt solution (Invitrogen, Carlsbad, Calif.), 20 mM HEPES, 2.5 mM probenecid, pH 7.4 and left with 20 μL of this reagent.

Setting [2] is: maximum average response at a single concentration.
Where [3] appears, read: HEK293, maximum average response at a single concentration, read-out: Emax.

Here are results for 35 compounds from patent publication US9255103B2, “Substituted pyrazolo[1,5-a]pyrazines as mGluR5 receptor modulators” (Vanderbilt University, priority 2010, dated 2016).

Where two headings read alike, the source gives them in different places. A value given as a limit tells only on which side of the number the result lay.

Chain of human mGluR5a receptor (P41594 21-1180 isoform P41594-2 limits assumed): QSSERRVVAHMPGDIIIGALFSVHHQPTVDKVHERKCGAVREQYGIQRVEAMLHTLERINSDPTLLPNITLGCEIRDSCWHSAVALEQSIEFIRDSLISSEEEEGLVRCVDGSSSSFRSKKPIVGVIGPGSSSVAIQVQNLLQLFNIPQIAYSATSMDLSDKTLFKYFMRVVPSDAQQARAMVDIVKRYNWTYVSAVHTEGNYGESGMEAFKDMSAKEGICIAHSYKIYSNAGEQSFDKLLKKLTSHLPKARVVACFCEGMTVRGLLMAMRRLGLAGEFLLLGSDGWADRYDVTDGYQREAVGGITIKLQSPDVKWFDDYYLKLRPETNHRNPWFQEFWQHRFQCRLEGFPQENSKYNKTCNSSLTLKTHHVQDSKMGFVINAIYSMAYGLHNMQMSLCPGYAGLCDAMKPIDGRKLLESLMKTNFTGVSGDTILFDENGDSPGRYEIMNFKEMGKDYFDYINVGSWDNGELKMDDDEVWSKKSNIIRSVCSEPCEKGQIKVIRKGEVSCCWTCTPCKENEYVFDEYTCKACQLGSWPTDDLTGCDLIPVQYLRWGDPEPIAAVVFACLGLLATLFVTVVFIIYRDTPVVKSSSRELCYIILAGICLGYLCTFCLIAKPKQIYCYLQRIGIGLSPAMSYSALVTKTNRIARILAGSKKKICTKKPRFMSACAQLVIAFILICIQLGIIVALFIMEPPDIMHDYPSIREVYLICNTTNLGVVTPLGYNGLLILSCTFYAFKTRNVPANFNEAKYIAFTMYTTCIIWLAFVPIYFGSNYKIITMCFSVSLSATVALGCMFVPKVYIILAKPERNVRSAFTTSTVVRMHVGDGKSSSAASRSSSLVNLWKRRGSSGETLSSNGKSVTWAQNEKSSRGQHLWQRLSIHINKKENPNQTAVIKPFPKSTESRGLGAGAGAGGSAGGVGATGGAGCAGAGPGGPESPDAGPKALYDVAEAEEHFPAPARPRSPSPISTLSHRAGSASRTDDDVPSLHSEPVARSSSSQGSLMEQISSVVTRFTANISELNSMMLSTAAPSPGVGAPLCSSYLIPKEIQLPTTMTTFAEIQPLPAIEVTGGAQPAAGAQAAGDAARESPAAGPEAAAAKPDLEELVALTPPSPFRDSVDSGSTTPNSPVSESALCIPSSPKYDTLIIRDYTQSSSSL

For the compound `CC1CN(C(=O)c2ccc(F)cc2)Cc2cc(COc3ccccc3)nn21` (centres unmarked) [Compound 41], in series [1], the pEC50 is reported as 6.79 and the concentration for a half-maximal effect (EC50) was 162 nM. Besides, in series [1] (setting [2]), the maximal effect (Emax) was 74%.
On to `CC1Cn2nc(COc3ccccc3)cc2CN1C(=O)c1ccc(F)cc1` (centres unmarked) [Compound 45], for which the melting point is 53.8 °C. Also, in series [1], the negative logarithm of the EC50 (pEC50) is 6.62 and the EC50 was found to be 240 nM. The maximal effect (Emax) in series [1] (setting [2]) was determined as 75%.
With `O=C(c1cccc(F)c1)N1CCn2nc(COc3cccc(F)c3)cc2C1` [Compound 10], the Emax in series [1] (setting [3]) amounted to 69%. For the same compound, in series [1], the negative logarithm of the EC50 (pEC50) was 6.57 and the concentration giving a half-maximal response (EC50) came out at 269 nM.
Taken in the same sequence, the figures for `O=C(c1ccc(F)cc1)N1CCn2nc(COc3ccccc3)c(F)c2C1` [Compound 56] were 62%, 6.26 and 550 nM.
In the case of `COc1c(COc2ccccc2)nn2c1CN(C(=O)c1ccc(F)cc1)CC2` [Compound 59], in series [1] (setting [3]), the Emax stood at 15%. Besides, in series [1], the pEC50 was determined as 5.74 and the EC50 is 1820 nM.
`Cc1cccc(C(=O)N2CCn3nc(COc4cccc(F)c4)cc3C2)n1` [Compound 24] displayed a melting point of 88 °C. In series [1] (setting [3]), the maximal effect (Emax) is 58%. Moreover, in series [1], the pEC50 is on record as 5.51 and the EC50 was found to be 3030 nM.
Consider `Cc1c(COc2ccccc2)nn2c1CN(C(=O)c1ccc(F)cc1)CC2` [Compound 57], for which the melting point was 158.5 °C. Moreover, in series [1] (setting [3]), the maximal response (Emax) turned out to be 44%. Further, in series [1], the pEC50 is on record as 5.52 and the concentration for a half-maximal effect (EC50) turned out to be 3020 nM.
Taken in the same sequence, the figures for `N#Cc1ccc(C(=O)N2CCn3nc(COc4cccc(F)c4)cc3C2)cc1F` [Compound 32] were over 300 °C, 23%, 5.75 and 1780 nM.
With `O=C(c1ccccc1)N1CCn2nc(COc3cccc(F)c3)cc2C1` [Compound 9], the melting point worked out at 159.2 °C. Besides, the maximal effect (Emax) in series [1] (setting [3]) was 72%. Further, in series [1], the negative logarithm of the EC50 (pEC50) worked out at 6.59 and the concentration giving a half-maximal response (EC50) is 257 nM.
In the case of `O=C(c1cccc(F)c1F)N1CCn2nc(COc3ccccc3)cc2C1` [Compound 7], the maximum response (Emax) in series [1] (setting [3]) is 58%. Besides, in series [1], the pEC50 is listed as 6.39 and the EC50 came out at 406 nM.
The compound `CC1CN(C(=O)c2ccc(F)cc2)Cc2cc(COc3ccccc3)nn21` (racemic) [Compound 16] returned a melting point of 126.5 °C. The Emax in series [1] (setting [3]) worked out at 77%. In addition, the concentration giving a half-maximal response (EC50) in series [1] is 172 nM.
As for `O=C(c1ccc(F)c(F)c1)N1CCn2nc(COc3ccccc3)cc2C1` [Compound 4], the melting point came to 100.6 °C. The maximal effect (Emax) in series [1] (setting [3]) is 70%. Moreover, in series [1], the negative-log EC50 (pEC50) came out at 6.38 and the concentration for a half-maximal effect (EC50) was 414 nM.
`CC1CN(C(=O)c2ccc(F)cc2)Cc2cc(COc3ccccc3)nn21` (centres unmarked) [Compound 40]: the maximal response (Emax) in series [1] (setting [3]) stood at 58%. For the same compound, in series [1], the pEC50 amounted to 6.15 and the EC50 was 708 nM.
As for `Cc1cnc(C(=O)N2CCn3nc(COc4cccc(F)c4)cc3C2)cn1` [Compound 35], the melting point is 105.5 °C. For the same compound, the maximum response (Emax) in series [1] (setting [3]) amounted to 36%. For the same compound, in series [1], the pEC50 is reported as under 4.52 and the EC50 was over 30200 nM.
In turn, `O=C(c1ccc(F)cc1)N1CCn2nc(COc3cccc(F)c3)cc2C1` [Compound 12] gave a melting point of 126.9 °C. Also, the Emax in series [1] (setting [3]) stood at 69%.
In turn, `N#Cc1cc(F)cc(C(=O)N2CCn3nc(COc4ccccc4)cc3C2)c1` [Compound 26] displayed a melting point of 109.8 °C. Besides, in series [1] (setting [3]), the Emax was found to be 52%. In addition, in series [1], the negative-log EC50 (pEC50) is 7.08 and the EC50 was 83 nM.
For the compound `CC1CN(C(=O)c2cc(F)cc(C#N)c2)Cc2cc(COc3ccccc3)nn21` (centres unmarked) [Compound 44], in series [1] (setting [3]), the maximal response (Emax) was determined as 66%. For the same compound, in series [1], the pEC50 was determined as 6.16 and the EC50 worked out at 692 nM.
The matching figures for `O=C(c1cc(F)cc(F)c1)N1CCn2nc(COc3ccccc3)cc2C1` [Compound 5]: 50%, 7.10 and 79.6 nM.
Taken in the same sequence, the figures for `Cc1ncccc1C(=O)N1CCn2nc(COc3cccc(F)c3)cc2C1` [Compound 22] were 34%, 5.53 and 2910 nM.
As to `O=C(c1ccc(F)cc1F)N1CCn2nc(COc3ccccc3)cc2C1` [Compound 8], the maximal response (Emax) in series [1] (setting [3]) stood at 78%. Further, in series [1], the pEC50 is 6.68 and the EC50 was determined as 208 nM.
For the compound `CC(Oc1ccccc1)c1cc2n(n1)CCN(C(=O)c1ccc(F)cc1)C2` (racemic) [Compound 54], the Emax in series [1] (setting [3]) is 25%. Further, in series [1], the EC50 is over 30200 nM.
As to `CC1(C)CN(C(=O)c2ccc(F)cc2)Cc2cc(COc3ccccc3)nn21` [Compound 18], the Emax in series [1] (setting [3]) was determined as 66%. In addition, in series [1], the pEC50 is recorded as 6.59 and the EC50 came to 256 nM.
For `CC1Cn2nc(COc3ccccc3)cc2CN1C(=O)c1cccc(F)c1` (centres unmarked) [Compound 48], in series [1], the negative-log EC50 (pEC50) came to 6.31 and the concentration for a half-maximal effect (EC50) was determined as 490 nM. The Emax in series [1] (setting [2]) came out at 67%.
Regarding `N#Cc1cccc(C(=O)N2CCn3nc(COc4ccccc4)cc3C2)c1` [Compound 25], in series [1] (setting [3]), the maximal effect (Emax) turned out to be 60%. Besides, in series [1], the negative logarithm of the EC50 (pEC50) is given as 6.34 and the EC50 is 457 nM.
Take `O=C(c1cnccn1)N1CCn2nc(COc3cccc(F)c3)cc2C1` [Compound 34]: the maximal effect (Emax) in series [1] (setting [3]) came to 60%. In series [1], the pEC50 amounted to 5.52 and the half-maximal effective concentration (EC50) was 3020 nM.
`CC1Cn2nc(COc3ccccc3)cc2CN1C(=O)c1cc(F)cc(C#N)c1` (centres unmarked) [Compound 51]: the maximal effect (Emax) in series [1] (setting [3]) was found to be 56%. Also, in series [1], the negative logarithm of the EC50 (pEC50) is given as 6.12 and the concentration giving a half-maximal response (EC50) stood at 759 nM.
`Nc1c(COc2ccccc2)nn2c1CN(C(=O)c1ccc(F)cc1)CC2` [Compound 58]: the maximal response (Emax) in series [1] (setting [3]) stood at 51%. For the same compound, in series [1], the pEC50 was 5.34 and the EC50 is 4570 nM.
For `CC1CN(C(=O)c2cccc(F)c2)Cc2cc(COc3ccccc3)nn21` (centres unmarked) [Compound 42], the Emax in series [1] (setting [3]) turned out to be 69%. Also, in series [1], the pEC50 is recorded as 6.86 and the EC50 was determined as 138 nM.
The matching figures for `CC1Cn2nc(COc3ccccc3)cc2CN1C(=O)c1cccc(F)c1` (centres unmarked) [Compound 47]: 52%, 5.97 and 1070 nM.
Taken in the same sequence, the figures for `O=C(c1ccccc1F)N1CCn2nc(COc3ccccc3)cc2C1` [Compound 2] were 76%, 6.70 and 201 nM.
The matching figures for `O=C(c1ccc(F)cc1)N1CCn2nc(COc3ccc(F)cc3)cc2C1` [Compound 38]: 58%, 6.53 and 295 nM.
Regarding `Cc1ncc(C(=O)N2CCn3nc(COc4cccc(F)c4)cc3C2)cn1` [Compound 37], the maximal effect (Emax) in series [1] (setting [3]) is 12%. In series [1], the pEC50 is given as under 4.52 and the half-maximal effective concentration (EC50) is over 30200 nM.
As for `CC1Cn2nc(COc3ccccc3)cc2CN1C(=O)c1ccc(F)cc1` (racemic) [Compound 17], the Emax in series [1] (setting [3]) came out at 81%. Moreover, the EC50 in series [1] is 673 nM.
`CC1Cn2nc(COc3ccccc3)cc2CN1C(=O)c1cc(F)cc(C#N)c1` (centres unmarked) [Compound 52]: in series [1], the pEC50 was under 5.00 and the EC50 was over 10000 nM. Further, the maximal response (Emax) in series [1] (setting [2]) amounted to 69%.
Turning to `O=C(c1cccc(F)c1)N1CCn2nc(COc3ccccc3)cc2C1` [Compound 3], in series [1] (setting [3]), the Emax came to 66%. For the same compound, in series [1], the pEC50 was 6.77 and the concentration giving a half-maximal response (EC50) was 169 nM.

The term pEC50 denotes the negative decadic logarithm of the EC50, by convention in mol/L. The term EC50 denotes the midpoint of the concentration-response curve. By Emax is commonly meant the maximal effect, on the per cent scale that the assay sets. What is called melting point is the temperature of the solid-liquid transition.
